This note sets out measurements from the supplement of paper PMC10307832.

Common to all, as to test: relative viability (nuclei count vs DMSO), 5 days (fraction); higher = more cells survive
Compound in assay [1]: C=CCn1c(=O)c2cnc(Nc3ccc(N4CCN(C)CC4)cc3)nc2n1-c1cccc(C(C)(C)O)n1 [Adavosertib] + CC1(C)CCC(c2ccc(Cl)cc2)=C(CN2CCN(c3ccc(C(=O)NS(=O)(=O)c4ccc(N[C@H](CCN5CCOCC5)CSc5ccccc5)c(S(=O)(=O)C(F)(F)F)c4)cc3)CC2)C1 [Navitoclax] (partner 0.5 µM)
Summed up: (§1)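 Lung cancer cell lines in 1536-well plates were dosed by pin tool the day after seeding, either with one drug alone or with a fixed anchor-drug dose plus five library-drug doses (not always all listed) in √10 steps. After 5 days, cells were fixed and their nuclei stained in one step (final 0.05% Triton X-100, 1% formaldehyde, 1 ug/ml Hoechst), then counted on 4× images. Relative viability is the nuclei count in treated wells divided by that in vehicle wells. Values are medians of duplicate plates.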

Compound in assay [2]: COc1nc(N)nc2c1ncn2[C@@H]1O[C@H](CO)[C@@H](O)[C@@H]1O [Nelarabine] + Cc1cc(Nc2cc(N3CCN(C)CC3)nc(Sc3ccc(NC(=O)C4CC4)cc3)n2)n[nH]1 [Tozasertib] (partner 0.1 µM)
In outline: as §1

Compound in assay [3]: C=CCn1c(=O)c2cnc(Nc3ccc(N4CCN(C)CC4)cc3)nc2n1-c1cccc(C(C)(C)O)n1 [Adavosertib] + Cc1nc(Nc2ncc(C(=O)Nc3c(C)cccc3Cl)s2)cc(N2CCN(CCO)CC2)n1 [Dasatinib] (partner 0.075 µM)
Summed up:
as §1

Compound in assay [4]: COc1nc(N)nc2c1ncn2[C@@H]1O[C@H](CO)[C@@H](O)[C@@H]1O [Nelarabine] + Nc1nc2[nH]cc(CCc3ccc(C(=O)N[C@@H](CCC(=O)O)C(=O)O)cc3)c2c(=O)[nH]1 [Pemetrexed] (partner 0.2 µM)
In outline: as §1

As to HCC-366, the relative viability came out at 0.983 in assay [1] (first compound 0.01 µM); 1.07 in assay [1] (first compound 0.03162 µM); 1.12 in assay [1] (first compound 0.1 µM); 1.08 in assay [1] (first compound 0.3162 µM); 0.0929 in assay [2] (first compound 0.01 µM); 0.0947 in assay [2] (first compound 0.03162 µM). For the same cell line, the relative viability in assay [2] (first compound 0.1 µM) was found to be 0.0956; in assay [2] (first compound 0.3162 µM), 0.17; in assay [2] (first compound 1 µM), 0.112; in assay [3] (first compound 0.01 µM), 0.668; in assay [3] (first compound 0.03162 µM) it was 0.631; in assay [3] (first compound 0.1 µM), 0.736. The relative viability was 0.63 in assay [3] (first compound 0.3162 µM); 0.204 in assay [4] (first compound 0.01 µM); 0.146 in assay [4] (first compound 0.03162 µM); 0.202 in assay [4] (first compound 0.1 µM); 0.225 in assay [4] (first compound 0.3162 µM); 0.22 in assay [4] (first compound 1 µM).
